Data reported in patent US20240400604A1, “NUCLEOSIDE TRIPHOSPHATE PHOTOAFFINITY PROBE, METHOD FOR PREPARING SAME, AND APPLICATIONS THEREOF” (SHANDONG UNIVERSITY, priority 2023, published 2024).

Assays:
ACTR2 = target: T1, ACTR2 (Homo sapiens, UniProt P61160); experiment: EHT 1864 competitive GTP-N probe labeling of HEK 293T cell lysates, LC-MS/MS; assay type: binding; conditions: GTP-N probe 20 μM; EHT 1864 20, 40, 100, 200 μM
T1 construct: endogenous in cells; host or cells: HEK 293T cell lysate
Procedure: (§1) Using the On-Beads digestion method, the GTP-N probe was used for protein labeling of HEK 293T cell lysates. For the competition experiments, a GTP-competitive inhibitor EHT 1864 was added before probe labeling to inhibit probe binding with targeted GTP-binding proteins. The final concentration of the probe was 20 μM, and EHT 1864 was used at concentrations of 20 μM, 40 μM, 100 μM, and 200 μM, respectively. The inhibitor was pre-incubated with cell lysates on ice for 10 minutes, followed by the GTP-N probe labeling, sample preparation, and LC-MS/MS analysis, same as in Section 1.3 of Example 3.

ACTR3 = target: T2, ACTR3 (Homo sapiens, UniProt P61158); experiment: as above; assay type: binding; conditions: GTP-N probe 20 μM; EHT 1864 20, 40, 100, 200 μM
T2 construct: the GTP-N probe was used for protein labeling of HEK 293T cell lysates; endogenous in cells; host or cells: HEK 293T cell lysate
Procedure: as §1

PLCG1 = target: T3, PLCG1 (Homo sapiens, UniProt P19174); experiment: as above; assay type: binding; conditions: GTP-N probe 20 μM; EHT 1864 20, 40, 100, 200 μM
T3 construct: the GTP-N probe was used for protein labeling of HEK 293T cell lysates; endogenous in cells; host or cells: HEK 293T cell lysate
T3 sequence (P19174 1-1290): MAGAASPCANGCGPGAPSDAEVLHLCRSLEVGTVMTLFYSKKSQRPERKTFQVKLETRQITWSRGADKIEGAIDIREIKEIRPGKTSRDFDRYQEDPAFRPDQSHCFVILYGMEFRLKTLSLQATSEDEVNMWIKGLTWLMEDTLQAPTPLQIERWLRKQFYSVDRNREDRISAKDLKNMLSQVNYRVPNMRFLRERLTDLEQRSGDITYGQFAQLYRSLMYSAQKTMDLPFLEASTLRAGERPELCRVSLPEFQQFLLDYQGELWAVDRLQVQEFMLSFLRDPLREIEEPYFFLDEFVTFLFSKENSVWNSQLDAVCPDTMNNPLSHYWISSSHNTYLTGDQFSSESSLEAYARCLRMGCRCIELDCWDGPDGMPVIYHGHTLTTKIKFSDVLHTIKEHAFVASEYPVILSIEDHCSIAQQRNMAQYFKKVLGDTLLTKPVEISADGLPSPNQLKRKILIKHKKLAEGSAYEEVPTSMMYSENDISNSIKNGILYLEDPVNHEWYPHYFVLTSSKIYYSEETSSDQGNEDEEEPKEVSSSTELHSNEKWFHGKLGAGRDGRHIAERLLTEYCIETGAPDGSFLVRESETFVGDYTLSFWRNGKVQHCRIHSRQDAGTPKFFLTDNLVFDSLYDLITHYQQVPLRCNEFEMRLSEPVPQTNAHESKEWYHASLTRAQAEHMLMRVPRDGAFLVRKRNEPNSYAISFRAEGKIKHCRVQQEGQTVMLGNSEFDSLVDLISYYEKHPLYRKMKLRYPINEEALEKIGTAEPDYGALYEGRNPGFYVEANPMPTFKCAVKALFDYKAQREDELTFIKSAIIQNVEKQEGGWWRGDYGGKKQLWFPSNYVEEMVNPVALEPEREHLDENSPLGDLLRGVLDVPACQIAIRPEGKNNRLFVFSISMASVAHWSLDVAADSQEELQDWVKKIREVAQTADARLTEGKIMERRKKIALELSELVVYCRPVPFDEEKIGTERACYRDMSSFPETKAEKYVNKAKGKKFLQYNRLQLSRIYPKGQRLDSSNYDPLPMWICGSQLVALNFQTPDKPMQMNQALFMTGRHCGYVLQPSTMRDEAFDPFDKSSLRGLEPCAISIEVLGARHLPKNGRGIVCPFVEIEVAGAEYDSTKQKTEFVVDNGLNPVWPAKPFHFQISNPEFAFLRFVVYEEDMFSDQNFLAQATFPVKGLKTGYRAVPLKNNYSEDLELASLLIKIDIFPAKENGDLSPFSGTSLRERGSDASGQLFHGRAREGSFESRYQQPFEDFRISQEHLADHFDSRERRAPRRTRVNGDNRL
Procedure: as §1

[1] = test system: ATP-binding proteins in HEK 293T cell lysates; experiment: In-gel fluorescence imaging of HEK 293T cell lysates labeled with the ATP-N probe; conditions: FIG. 23a, in-gel fluorescence
[2] = test system: ATP-binding proteins in HEK 293T cell lysates; experiment: Proteomic LC-MS/MS (LFQ) analysis of HEK 293T cell lysates labeled with the ATP-N probe, ATP competition; set-up: species or system human
Procedure: (§2) 1 mg of cell lysate was labeled with 10 μM ATP-N probe. The subsequent steps were the same as in Section 1.3 of Example 3.
(§3) The C18 pre-column (Thermo Fisher, 164564-CMD, 100 μm×2 cm) and analytical column (Thermo Fisher, 164941, 75 μm×25 cm) used in the LC-MS/MS analysis were commercially available. The liquid chromatography (Vanquish Neo, Thermo Fisher) settings were as follows: Solvent A was 98% H2O with 0.1% FA, and Solvent B was 98% ACN with 0.1% FA. The flow rate was 300 nL/min, with the elution gradient as follows: 0 minutes, 2% B; 5 minutes, 26% B; 127 minutes, 36% B; 137 minutes, 72% B; 142 minutes, 80% B; and 143-153 minutes, 80% B. The mass spectrometer (Orbitrap Exploris 480, Thermo Fisher) settings were: full MS scan in positive ion mode, electrospray ion source voltage 1.9 kV, ion transfer tube temperature 320° C., scan m/z range 350-1500, resolution of 120000, AGC target 300%, maximum injection time 25 ms. For dd-MS^2, resolution was 15000, AGC target 50%, maximum injection time was automatically selected, and the cycle time for MS scanning was set to 3 s. DDA mode was used for data acquisition and the data collection time was 0-142 minutes.
The obtained MS raw files were analyzed using Proteome Discoverer 2.5 software, and searched against the Uniprot human protein database (as of November 2022, total proteins: 20401). Enzyme specificity was set to trypsin, cysteine carbamidomethylation was set as a fixed modification, and methionine oxidation and N-terminal acetylation were set as variable modifications.
HEK 293T cell lysates were labeled with 10 μM ATP-N probe. Labeled proteins were enriched with streptavidin beads, and digested with trypsin to prepare peptide samples for LC-MS/MS analysis. Adding 100 μM ATP as the competitor during probe labeling, the labeling of ATP-binding proteins would be interfered. Compared with the probe-labeling group without competitors, more specific ATP-binding proteins could be identified with label-free quantitative (LFQ) analysis.

[3] = target: T4, N-acetylglucosamine kinase (NAGK) (Homo sapiens, UniProt Q9UJ70); experiment: Identification of ATP-N probe-modified site by LC-MS/MS; conditions: near ATP-binding pocket, FIG. 26a
T4 construct: in the samples of HEK 293T cell lysates labeled with the ATP-N probe; endogenous in cells; host or cells: HEK 293T cell lysate
Procedure: as §2, §3
(§4) The obtained MS raw files were analyzed using Proteome Discoverer 2.5 software, and searched against the Uniprot human protein database (as of November 2022, total proteins: 20401). […]

VRK1 = target: T5, VRK1 (Homo sapiens, UniProt Q99986); experiment: as above; conditions: close to ATP-binding pocket, FIG. 26b
T5 construct: in the samples of HEK 293T cell lysates labeled with the ATP-N probe; endogenous in cells; host or cells: HEK 293T cell lysate
T5 sequence (Q99986 1-396): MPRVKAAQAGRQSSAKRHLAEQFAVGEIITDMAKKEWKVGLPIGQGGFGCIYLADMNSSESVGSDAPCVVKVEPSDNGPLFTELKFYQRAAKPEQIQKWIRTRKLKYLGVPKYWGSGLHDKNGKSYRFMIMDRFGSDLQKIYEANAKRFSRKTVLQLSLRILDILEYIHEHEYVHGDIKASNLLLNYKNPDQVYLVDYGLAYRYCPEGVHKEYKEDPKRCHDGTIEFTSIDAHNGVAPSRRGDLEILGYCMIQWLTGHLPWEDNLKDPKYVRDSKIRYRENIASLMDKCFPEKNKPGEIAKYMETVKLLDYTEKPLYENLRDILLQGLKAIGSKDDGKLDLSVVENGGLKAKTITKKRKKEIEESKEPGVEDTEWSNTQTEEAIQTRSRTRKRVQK
Procedure: as §2, §3, §4

[4] = test system: ATP-binding proteins, including kinases; experiment: Staurosporine competitive ATP-N probe labeling of cell lysates, LC-MS/MS; set-up: species or system human; conditions: staurosporine at 1×, 10×, 20× concentration of the ATP-N probe; one biological replicate
Procedure: The preparation of mass spectrometry samples was the same as in Section 1.3 of Example 7, except that ATP was replaced with different concentrations of staurosporine.
Prior to probe labeling, cell lysates were pre-incubated on ice with staurosporine at 1×, 10×, and 20× concentration of the ATP-N probe, and compared with the control group without staurosporine treatment. Potential target proteins of kinase inhibitors were screened based on the abundance ratio between the competition group and the control group through LC-MS/MS analysis. Theoretically, as the concentration of the inhibitor increases, the labeling efficiency of its target proteins should gradually decrease. Therefore, proteins were screened based on their abundance ratios ([…]), identifying proteins whose detected abundance decreased with increasing inhibitor concentrations. Proteins with lower confidence were filtered out, leaving proteins that met the criteria for further analysis. Most proteins with reduced labeling efficiency after staurosporine treatment were ATP-binding proteins, including kinases, and this trend increased with higher inhibitor concentrations. […] Since the data presented in this example represent only one biological replicate, there may be some errors. Typically, using the average values and p-values from three biological replicates would yield more reliable results.

[5] = GO-MF analysis of screened proteins

T4 sequence (Q9UJ70 whole entry): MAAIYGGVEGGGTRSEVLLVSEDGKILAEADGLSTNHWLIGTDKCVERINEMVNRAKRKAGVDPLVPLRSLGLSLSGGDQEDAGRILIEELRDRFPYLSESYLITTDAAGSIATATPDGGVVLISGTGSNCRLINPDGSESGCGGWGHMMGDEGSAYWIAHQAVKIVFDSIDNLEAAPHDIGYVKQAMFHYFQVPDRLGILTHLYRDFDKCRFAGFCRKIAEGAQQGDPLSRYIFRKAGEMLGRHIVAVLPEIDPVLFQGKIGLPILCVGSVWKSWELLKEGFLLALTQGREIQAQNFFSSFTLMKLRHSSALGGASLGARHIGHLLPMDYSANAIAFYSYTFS

O=c1cc(CN2CCOCC2)occ1OCCCCCSc1ccnc2cc(C(F)(F)F)ccc12 [EHT 1864]
protein intensity of ACTR2 in competition groups (ACTR2): overall decreased protein intensities | protein intensity of ACTR3 in competition groups (ACTR3): overall decreased protein intensities | protein intensity of PLCG1 in competition groups (PLCG1): overall decreased protein intensities

C#CCCC1(CCNP(=O)(O)OP(=O)(O)OP(=O)(O)OC[C@H]2O[C@@H](n3cnc4c(N)ncnc43)C(O)[C@H]2O)N=N1 (stereo partly drawn) [ATP-N probe]
lowest probe concentration showing clear fluorescent bands [1]: 1 µM | proteins with significantly decreased intensity in the ATP competition group ([2]; 10 μM probe, 100 μM ATP, all three replicates, ratio>2, p-value<0.05): More than 160 | of these, kinases [2, 5]: around 78 | of these, previously annotated ATP-binding proteins [2, 5]: approximately 129 | share of annotated ATP-binding proteins among all screened proteins [2, 5]: over 80% | proteins with significantly decreased intensity in the competition group, probe-modified peptides ([2]; quantitative analysis of probe-modified peptides, all three replicates, ratio>2, p-value<0.05): About 44 | probe-modified residue [3]: Glu16 | probe-labeled residue (VRK1): Glu73

CN[C@@H]1C[C@H]2O[C@@](C)([C@@H]1OC)n1c3ccccc3c3c4c(c5c6ccccc6n2c5c31)C(=O)NC4 [staurosporine, Staurosporine]
proteins with significantly reduced ATP-N probe labeling in the competition group [4]: several known staurosporine targets were identified
